Assay results as given in ChEMBL document CHEMBL3046832, “Synthesis of some sulfonamides, disubstituted sulfonylureas or thioureas and some structurally related variants. A class of promising antitumor agents” (2007).

Tests used:
Type in all cases: functional
[1] = Cytotoxicity against Homo sapiens (human) CNS cancer cells after 48 hr by SRB assay; settings: Cancer cell lines
[2] = Cytotoxicity against Homo sapiens (human) breast cancer cells after 48 hr by SRB assay; settings: Cancer cell lines
[3] = Cytotoxicity against Homo sapiens (human) NCI-H322 cells after 48 hr by SRB assay; settings: NCI-H322, 48 h
786-0 = assay: Cytotoxicity against Homo sapiens (human) 786-0 cells after 48 hr by SRB assay; settings: 786-0, 48 h
OVCAR-3 = assay: Cytotoxicity against Homo sapiens (human) OVCAR3 cells after 48 hr by SRB assay; settings: OVCAR-3, 48 h
MDA-MB-435 = assay: Cytotoxicity against Homo sapiens (human) MDA-MB-435 cells after 48 hr by SRB assay; settings: MDA-MB-435, 48 h
UACC-62 = assay: Cytotoxicity against Homo sapiens (human) UACC62 cells after 48 hr by SRB assay; settings: UACC-62, 48 h
UO-31 = assay: Cytotoxicity against Homo sapiens (human) UO31 cells after 48 hr by SRB assay; settings: UO-31, 48 h
IGROV-1 = assay: Cytotoxicity against Homo sapiens (human) IGROV1 cells after 48 hr by SRB assay; settings: IGROV-1, 48 h
PC-3 = assay: Cytotoxicity against Homo sapiens (human) PC3 cells after 48 hr by SRB assay; settings: PC-3, 48 h
OVCAR-4 = assay: Cytotoxicity against Homo sapiens (human) OVCAR4 cells after 48 hr by SRB assay; settings: OVCAR-4, 48 h
HT-29 = assay: Cytotoxicity against Homo sapiens (human) HT-29 cells after 48 hr by SRB assay; settings: HT-29, 48 h
COLO 205 = assay: Cytotoxicity against Homo sapiens (human) COLO205 cells after 48 hr by SRB assay; settings: COLO 205, 48 h
BT-549 = assay: Cytotoxicity against Homo sapiens (human) BT549 cells after 48 hr by SRB assay; settings: BT-549, 48 h
HCT-15 = assay: Cytotoxicity against Homo sapiens (human) HCT15 cells after 48 hr by SRB assay; settings: HCT-15, 48 h
SW-620 = assay: Cytotoxicity against Homo sapiens (human) SW620 cells after 48 hr by SRB assay; settings: SW-620, 48 h
[4] = Cytotoxicity against Homo sapiens (human) melanoma cells after 48 hr by SRB assay; settings: Melanoma cell
T47D = assay: Cytotoxicity against Homo sapiens (human) T47D cells after 48 hr by SRB assay
DU-145 = assay: Cytotoxicity against Homo sapiens (human) DU145 cells after 48 hr by SRB assay; settings: DU-145, 48 h
[5] = Cytotoxicity against Homo sapiens (human) non-small cell lung cancer cells after 48 hr by SRB assay; settings: Cancer cell lines
[6] = Cytotoxicity against Homo sapiens (human) NCI-ADR-RES cells after 48 hr by SRB assay
SF-539 = assay: Cytotoxicity against Homo sapiens (human) SF539 cells after 48 hr by SRB assay; settings: SF-539, 48 h
M14 = assay: Cytotoxicity against Homo sapiens (human) M14 cells after 48 hr by SRB assay; settings: M14, 48 h
[7] = Cytotoxicity against Homo sapiens (human) ovarian cancer cells after 48 hr by SRB assay; settings: Cancer cell lines
SF-268 = assay: Cytotoxicity against Homo sapiens (human) SF268 cells assessed as cellular growth after 48 hr by Alamar blue assay; parameters: concentration or dose not given beside the values
ACHN = assay: Cytotoxicity against Homo sapiens (human) ACHN cells after 48 hr by SRB assay
MCF7 [8] = assay: Cytotoxicity against Homo sapiens (human) MCF7 cells assessed as cellular growth after 48 hr by Alamar blue assay; parameters: concentration or dose not given beside the values
NCI-H23 = assay: Cytotoxicity against Homo sapiens (human) NCI-H23 cells after 48 hr by SRB assay; settings: NCI-H23, 48 h
SNB-19 = assay: Cytotoxicity against Homo sapiens (human) SNB19 cells after 48 hr by SRB assay; settings: SNB-19, 48 h
SK-MEL-28 = assay: Cytotoxicity against Homo sapiens (human) SK-MEL-28 cells after 48 hr by SRB assay; settings: SK-MEL-28, 48 h
MCF7 [9] = assay: Cytotoxicity against Homo sapiens (human) MCF7 cells after 48 hr by SRB assay; settings: MCF7, 48 h
SK-OV-3 = assay: Cytotoxicity against Homo sapiens (human) SKOV3 cells after 48 hr by SRB assay; settings: SK-OV-3, 48 h
RXF 393 = assay: Cytotoxicity against Homo sapiens (human) RXF393 cells after 48 hr by SRB assay; settings: RXF 393, 48 h
NCI-H460 = assay: Cytotoxicity against Homo sapiens (human) NCI-H460 cells after 48 hr by SRB assay; settings: NCI-H460, 48 h
[10] = Cytotoxicity against Homo sapiens (human) leukemia cells after 48 hr by SRB assay; settings: Leukemia cell
SK-MEL-2 = assay: Cytotoxicity against Homo sapiens (human) SK-MEL-2 cells after 48 hr by SRB assay; settings: SK-MEL-2, 48 h
HCC 2998 = assay: Cytotoxicity against Homo sapiens (human) HCC2998 cells after 48 hr by SRB assay; settings: HCC 2998, 48 h
MDA-MB-231 = assay: Cytotoxicity against Homo sapiens (human) MDA-MB-231 cells after 48 hr by SRB assay; settings: MDA-MB-231, 48 h
U-251 = assay: Cytotoxicity against Homo sapiens (human) U251 cells after 48 hr by SRB assay; settings: U-251, 48 h
CAKI-1 = assay: Cytotoxicity against Homo sapiens (human) Caki1 cells after 48 hr by SRB assay; settings: CAKI-1, 48 h
NCI-H522 = assay: Cytotoxicity against Homo sapiens (human) NCI-H522 cells after 48 hr by SRB assay; settings: NCI-H522, 48 h
RPMI-8226 = assay: Cytotoxicity against Homo sapiens (human) RPMI8226 cells after 48 hr by SRB assay; settings: RPMI-8226, 48 h
KM12 = assay: Cytotoxicity against Homo sapiens (human) KM12 cells after 48 hr by SRB assay; settings: KM12, 48 h
EKVX = assay: Cytotoxicity against Homo sapiens (human) EKVX cells after 48 hr by SRB assay
[11] = Cytotoxicity against Homo sapiens (human) prostate cancer cells after 48 hr by SRB assay; settings: Cancer cell lines
SK-MEL-5 = assay: Cytotoxicity against Homo sapiens (human) SK-MEL-5 cells after 48 hr by SRB assay; settings: SK-MEL-5, 48 h

O=C1CCS/C(=N\S(=O)(=O)c2ccc(N3N=C4c5ccccc5CC4C3c3cccs3)cc2)N1C(=O)c1ccccc1 (stereo not drawn)
GI50 [1]: 36.7 µM | TGI [1]: 68.2 µM | GI50 [2]: 25.4 µM | TGI [2]: 73.5 µM | GI50 [3]: 32.5 µM | GI50 (786-0): 14.1 µM | GI50 (OVCAR-3): 27.4 µM | GI50 (MDA-MB-435): 22.7 µM | GI50 (UACC-62): 6.37 µM | GI50 (UO-31): 30.7 µM | GI50 (IGROV-1): 14.5 µM | GI50 (PC-3): 29.2 µM | GI50 (OVCAR-4): > 100 µM | GI50 (HT-29): 39.6 µM | GI50 (COLO 205): 66.5 µM | GI50 (BT-549): 4.77 µM | GI50 (HCT-15): 15.1 µM | GI50 (SW-620): 13.1 µM | GI50 [4]: 15.3 µM | TGI [4]: 21.2 µM | GI50 (T47D): > 100 µM | GI50 (DU-145): 23.2 µM | GI50 [5]: 21.7 µM | TGI [5]: 71.4 µM | GI50 [6]: 32.9 µM | GI50 (SF-539): 23.8 µM | GI50 (M14): 10.8 µM | GI50 [7]: 36.9 µM | TGI [7]: 42.1 µM | Activity (SF-268): <=32% | GI50 (ACHN): 5.18 µM | Activity (MCF7 [8]): <=32% | GI50 (NCI-H23): 17.2 µM | GI50 (SNB-19): 45.7 µM | GI50 (SK-MEL-28): 50.2 µM | GI50 (MCF7 [9]): 9.1 µM | GI50 (SK-OV-3): 52.8 µM | GI50 (RXF 393): 6.31 µM | GI50 (NCI-H460): 26.6 µM | GI50 [10]: 37.6 µM | TGI [10]: 80.1 µM | GI50 (SK-MEL-2): 29.4 µM | GI50 (HCC 2998): 18.2 µM | GI50 (MDA-MB-231): 5.77 µM | GI50 (U-251): 4.5 µM | GI50 (CAKI-1): 26.8 µM | GI50 (NCI-H522): 14.4 µM | GI50 (RPMI-8226): 58.6 µM | GI50 (KM12): 29.4 µM | GI50 (EKVX): 22.1 µM | GI50 [11]: 26.2 µM | TGI [11]: > 100 µM | GI50 (SK-MEL-5): 2.56 µM
